# Columns and labels:
# [1] = Half life in human liver microsomes at 1 uM by LC-MS/MS analysis
# [2] = biological target: T1, Steroid 17-alpha-hydroxylase/17,20 lyase (Homo sapiens, UniProt P05093); assay: Inhibition of CYP17 in human testicular microsomes using 17alpha-hydroxypregnenolone as substrate assessed as decrease in DHEA levels at 1 nM after 90 mins by ELISA relative to control; set-up: species or system Testis
# T1 sequence (P05093 whole entry): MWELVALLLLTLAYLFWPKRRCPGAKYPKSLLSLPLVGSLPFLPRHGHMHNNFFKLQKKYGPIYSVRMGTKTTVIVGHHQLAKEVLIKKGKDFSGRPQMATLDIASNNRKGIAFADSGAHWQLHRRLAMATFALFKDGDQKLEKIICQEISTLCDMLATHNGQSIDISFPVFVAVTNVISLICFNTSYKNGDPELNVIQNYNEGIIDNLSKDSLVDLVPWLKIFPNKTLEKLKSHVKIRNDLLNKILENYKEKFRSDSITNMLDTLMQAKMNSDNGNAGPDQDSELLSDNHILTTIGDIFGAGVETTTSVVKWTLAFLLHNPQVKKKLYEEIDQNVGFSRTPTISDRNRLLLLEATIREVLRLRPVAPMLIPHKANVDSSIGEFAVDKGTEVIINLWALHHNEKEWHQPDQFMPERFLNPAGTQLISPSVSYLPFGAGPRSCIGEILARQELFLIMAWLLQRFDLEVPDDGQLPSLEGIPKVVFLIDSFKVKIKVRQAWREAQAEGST
# [3] = biological target: T1, Steroid 17-alpha-hydroxylase/17,20 lyase; assay: Inhibition of CYP17 in human H295R cells assessed as decrease in testosterone levels after 24 hrs by ELISA; assay type: cell-based
# [4] = biological target: T2, CYP21 (steroid 21-hydroxylase) (Homo sapiens, UniProt P08686); assay: Inhibition of human CYP21 transfected in HEK293 cells assessed as decrease in conversion of progesterone to 11-deoxycorticosterone preincubated for 5 hrs followed by progesterone addition measured after 20 hrs by ELISA; assay type: cell-based; set-up: concentration or dose not given beside the values; settings: HEK293 cells transfected with human CYP21, probe progesterone
# T2 sequence (P08686 whole entry): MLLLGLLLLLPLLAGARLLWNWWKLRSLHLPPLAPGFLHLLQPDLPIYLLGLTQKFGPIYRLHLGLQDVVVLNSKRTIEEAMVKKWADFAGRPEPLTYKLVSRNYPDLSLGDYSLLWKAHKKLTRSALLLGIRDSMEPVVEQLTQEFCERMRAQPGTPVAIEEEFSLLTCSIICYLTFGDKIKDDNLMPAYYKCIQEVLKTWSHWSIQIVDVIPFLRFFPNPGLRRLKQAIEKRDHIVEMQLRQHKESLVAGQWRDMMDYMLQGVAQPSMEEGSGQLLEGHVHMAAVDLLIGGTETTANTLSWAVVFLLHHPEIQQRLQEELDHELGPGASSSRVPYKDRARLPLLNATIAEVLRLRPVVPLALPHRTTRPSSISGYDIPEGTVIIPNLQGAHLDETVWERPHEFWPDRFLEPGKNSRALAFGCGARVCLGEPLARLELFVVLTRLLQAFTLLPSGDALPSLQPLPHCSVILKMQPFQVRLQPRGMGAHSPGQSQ
# [5] = biological target: T1, Steroid 17-alpha-hydroxylase/17,20 lyase; assay: Inhibition of CYP17 in human testicular microsomes using 17alpha-hydroxypregnenolone as substrate assessed as decrease in DHEA levels at 10 nM after 90 mins by ELISA relative to control; set-up: species or system Testis; settings: 1.5 h
# [6] = biological target: T1, Steroid 17-alpha-hydroxylase/17,20 lyase; assay: Inhibition of CYP17 in human testicular microsomes using 17alpha-hydroxypregnenolone as substrate assessed as decrease in DHEA levels after 90 mins by ELISA; set-up: species or system Testis
# CYP11B = biological target: T3, CYP11B (Rattus norvegicus, UniProt P15393+P30099); assay: Inhibition of Sprague-Dawley rat adrenal mitochondrial CYP11B assessed as decrease in conversion of 11-deoxycortisol to cortisol at 100 nM incubated for 60 mins by ELISA relative to control; assay type: protein assay; settings: adrenal mitochondria, probe 11-deoxycortisol
# T3 sequence (P30099 whole entry): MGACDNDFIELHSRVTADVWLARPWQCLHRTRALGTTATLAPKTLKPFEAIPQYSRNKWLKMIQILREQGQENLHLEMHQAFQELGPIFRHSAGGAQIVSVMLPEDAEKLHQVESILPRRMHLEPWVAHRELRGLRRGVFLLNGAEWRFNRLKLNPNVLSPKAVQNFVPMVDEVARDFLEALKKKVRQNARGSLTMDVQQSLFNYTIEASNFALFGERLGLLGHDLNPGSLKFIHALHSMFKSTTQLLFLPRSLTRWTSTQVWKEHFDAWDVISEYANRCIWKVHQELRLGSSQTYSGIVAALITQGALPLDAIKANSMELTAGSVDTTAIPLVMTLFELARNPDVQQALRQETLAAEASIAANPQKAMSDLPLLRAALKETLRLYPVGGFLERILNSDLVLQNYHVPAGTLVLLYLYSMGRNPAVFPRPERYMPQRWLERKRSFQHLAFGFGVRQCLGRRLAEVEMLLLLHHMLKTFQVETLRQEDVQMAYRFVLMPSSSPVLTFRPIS
# T3 sequence (P15393 whole entry): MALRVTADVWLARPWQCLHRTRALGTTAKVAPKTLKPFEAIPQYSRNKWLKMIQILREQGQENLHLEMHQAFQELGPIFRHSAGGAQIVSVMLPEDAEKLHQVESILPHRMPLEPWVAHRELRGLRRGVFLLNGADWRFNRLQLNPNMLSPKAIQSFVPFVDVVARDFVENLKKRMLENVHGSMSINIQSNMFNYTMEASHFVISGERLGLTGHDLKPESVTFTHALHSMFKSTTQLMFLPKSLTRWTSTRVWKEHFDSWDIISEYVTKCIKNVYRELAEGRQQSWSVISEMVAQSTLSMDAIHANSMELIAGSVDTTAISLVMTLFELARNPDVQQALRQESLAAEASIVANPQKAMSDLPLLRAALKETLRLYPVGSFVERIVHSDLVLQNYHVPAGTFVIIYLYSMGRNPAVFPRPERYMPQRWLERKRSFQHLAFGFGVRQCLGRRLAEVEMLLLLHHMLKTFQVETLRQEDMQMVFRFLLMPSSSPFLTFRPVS
Structure (SMILES),half-life at 1 µM [1],IC50 [2],IC50 [3],inhibition at 20 h [4],inhibition at 0.01 µM [5],IC50 [6],"inhibition at 1 h, 0.1 µM (CYP11B)"
C[C@]12CC[C@H]3[C@@H](CCC4=CC(=O)NCC[C@@]43C)C1=CC=C2c1cncc(F)c1,1 to 50 min,> 100 nM,≤ 15 nM,10 to 50%,,,
CC1C[C@H]2C3=CC=C(c4cccnc4)[C@@]3(C)CC[C@@H]2[C@@]2(C)C=CC(=O)C=C12 (some centres undefined),1 to 50 min,≤ 10 nM,,≥ 50%,≥ 80%,,
C[C@]12CCNC(=O)C=C1C1CC1[C@@H]1[C@@H]2CC[C@]2(C)C(c3cccnc3)=CC[C@@H]12 (some centres undefined),1 to 50 min,> 100 nM,,≥ 50%,,≤ 11 nM,
C=C1C[C@@H]2[C@H](CC[C@]3(C)C(c4cncc(F)c4)=CC[C@@H]23)[C@@]2(C)C=CC(=O)C=C12,1 to 50 min,> 100 nM,≤ 15 nM,,,≤ 11 nM,
CN1C(=O)C[C@@]2(C)C1=CC[C@@H]1[C@@H]2CC[C@]2(C)C(n3ccnc3)=CC[C@@H]12,,,,10 to 50%,,,≥ 50%
CC1C[C@@H]2[C@H](CC[C@]3(C)C(c4cncc(F)c4)=CC[C@@H]23)[C@@]2(C)CCC(=O)C=C12 (some centres undefined),,> 100 nM,≤ 15 nM,≥ 50%,,≤ 11 nM,
C[C@]12CCC(=O)C=C1C1(CC1)C[C@@H]1[C@@H]2CC[C@]2(C)C(c3cccnc3)=CC[C@@H]12,1 to 50 min,≤ 10 nM,≤ 15 nM,≥ 50%,,≤ 11 nM,
"C=C1CC2[C@H](CC[C@]3(C)C(c4cccnc4)=CC[C@@H]23)C2(C)C=CC(=O)C=C12 (single isomer, unassigned)",1 to 50 min,≤ 10 nM,≤ 15 nM,≥ 50%,,≤ 11 nM,
CC1C[C@H]2C3=CC=C(c4cccnc4)[C@@]3(C)CC[C@@H]2[C@@]2(C)CCC(=O)C=C12 (some centres undefined),1 to 50 min,≤ 10 nM,,≥ 50%,,≤ 11 nM,
CC1C[C@@H]2[C@H](CC[C@]3(C)C(c4cccnc4)=CC[C@@H]23)[C@@]2(C)CCC(=O)C=C12 (some centres undefined),1 to 50 min,10 to 100 nM,≤ 15 nM,≥ 50%,,≤ 11 nM,
CC1C[C@H]2C3=CC=C(c4cncc(F)c4)[C@@]3(C)CC[C@@H]2[C@@]2(C)CCC(=O)C=C12 (some centres undefined),1 to 50 min,≤ 10 nM,≤ 15 nM,10 to 50%,,,
C[C@]12CC[C@H]3[C@@H](CCC4=CC(=O)CC[C@@]43C)C1=CC=C2c1cncc(F)c1,1 to 50 min,10 to 100 nM,≤ 15 nM,≥ 50%,,≤ 11 nM,
C[C@]12CC[C@H]3[C@@H](CCC4=CC(=O)CC[C@@]43C)C1=CC=C2c1cncnc1,1 to 50 min,10 to 100 nM,,≥ 50%,,≤ 11 nM,
CC1C[C@@H]2[C@H](CC[C@]3(C)C(c4cccnc4)=CC[C@@H]23)[C@@]2(C)CC/C(=N\O)C=C12 (some centres undefined),1 to 50 min,> 100 nM,,10 to 50%,,,
C[C@]12CC[C@H]3[C@@H](CCC4=CC(=O)C=C[C@@]43C)C1=CC=C2c1cccnc1,1 to 50 min,10 to 100 nM,≤ 15 nM,≥ 50%,,≤ 11 nM,
CC1C[C@H]2C3=CC=C(c4cncc(F)c4)[C@@]3(C)CC[C@@H]2[C@@]2(C)CCNC(=O)C=C12 (some centres undefined),1 to 50 min,10 to 100 nM,,10 to 50%,,,
CC1C[C@@H]2[C@H](CC[C@]3(C)C(c4cccnc4)CC[C@@H]23)[C@@]2(C)C=CC(=O)C=C12 (some centres undefined),1 to 50 min,≤ 10 nM,,,,≤ 111 nM,
C[C@]12CCNC(=O)C=C1C1(CC1)C[C@@H]1[C@@H]2CC[C@]2(C)C(c3cccnc3)=CC[C@@H]12,1 to 50 min,≤ 10 nM,≤ 15 nM,10 to 50%,,≤ 11 nM,
C[C@]12CCC(=O)C=C1C1CC1[C@@H]1[C@@H]2CC[C@]2(C)C(c3cccnc3)=CC[C@@H]12 (some centres undefined),1 to 50 min,> 100 nM,,≥ 50%,,,
C[C@]12CC[C@H]3[C@@H](C=CC4=C(O)C(=O)CC[C@@]43C)C1=CC=C2c1cccnc1,1 to 50 min,> 100 nM,,≥ 50%,,,
C[C@]12C=CC(=O)C=C1C1(CC1)C[C@@H]1[C@@H]2CC[C@]2(C)C(c3cccnc3)=CC[C@@H]12,1 to 50 min,≤ 10 nM,≤ 15 nM,10 to 50%,,≤ 11 nM,
C[C@]12CCCN(S(C)(=O)=O)CC1CC[C@@H]1[C@@H]2CC[C@]2(C)C(n3ccnc3)=CC[C@@H]12 (some centres undefined),,,,,,,≥ 50%
C=C1C[C@H]2C3=CC=C(c4cccnc4)[C@@]3(C)CC[C@@H]2[C@@]2(C)C=CC(=O)C=C12,1 to 50 min,≤ 10 nM,,,,,
C[C@]12CCC(=O)C=C1C=C[C@@H]1[C@@H]2CC[C@]2(C)C(c3cccnc3)=CC[C@@H]12,1 to 50 min,> 100 nM,,≥ 50%,,,
C[C@]12CC[C@H]3[C@@H](C=CC4=CC(=O)CC[C@@]43C)C1=CC=C2c1cccnc1,1 to 50 min,10 to 100 nM,,≥ 50%,,≤ 11 nM,
CCC1C[C@H]2C3=CC=C(c4cccnc4)[C@@]3(C)CC[C@@H]2[C@@]2(C)CCC(=O)C=C12 (some centres undefined),1 to 50 min,10 to 100 nM,,10 to 50%,,≤ 11 nM,
C=C1C[C@@H]2[C@H](CC[C@]3(C)C(c4cccnc4)=CC[C@@H]23)[C@@]2(C)CCC(=O)C=C12,1 to 50 min,10 to 100 nM,≤ 15 nM,≥ 50%,,≤ 11 nM,
CC1C[C@@H]2[C@H](CC[C@]3(C)C(c4cccnc4)=CC[C@@H]23)[C@@]2(C)C=CC(=O)C=C12 (some centres undefined),1 to 50 min,≤ 10 nM,≤ 15 nM,≥ 50%,,,
CC1C[C@@H]2[C@H](CC[C@]3(C)C(c4cccnc4)CC[C@@H]23)[C@@]2(C)CCC(=O)C=C12 (some centres undefined),1 to 50 min,≤ 10 nM,,,,,

# Reference: ChEMBL document CHEMBL3882724 (2013)
